Some test systems named below: U251 CNS; A549 NSCLC; UACC-62 melanoma; TK-10 renal; DU-145 prostate; NCI-H226 lung; SK-OV-3 ovarian; SF-539 CNS; HCT-116 colon; NCI/ADR-RES ovarian.
Common to all, as to assay: DTP human tumour cell line panel, 48 h

Each structure is given as a SMILES string.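 Tested at 5 concentrations; 48 h exposure; 96-well plates; endpoints linearly interpolated, else capped at highest concentration. TGI: total growth inhibition.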

Regarding `C=CC(C)(C)N[C@@H](C(=O)N1CCC[C@H]1c1nc(-c2nc(C(=O)OCC=C(C)C)c(C)o2)c(C)o1)C(C)C`, the TGI – broadly, the concentration at which net growth stops – with U251 CNS is 45.1 µM; in the assay on A549 NSCLC it was > 100 µM; in the assay with UACC-62 melanoma it was 38.6 µM; in the assay with TK-10 renal it was 63.2 µM; in the assay on DU-145 prostate it was 34 µM; in the assay on NCI-H226 lung it was 35.6 µM. Besides, the TGI with SK-OV-3 ovarian was 86.8 µM; in the assay with SF-539 CNS, 38.3 µM; in the assay on HCT-116 colon, 38.6 µM; in the assay on NCI/ADR-RES ovarian it was 59 µM.
Take `Nc1ccc(-c2nc3cc(F)ccc3s2)cc1I`: the TGI in the assay on U251 CNS is 26.8 µM; in the assay with A549 NSCLC it was > 100 µM; in the assay with UACC-62 melanoma it was 85.8 µM; in the assay with TK-10 renal it was 21.1 µM; with DU-145 prostate, > 100 µM; in the assay on NCI-H226 lung, 21 µM. In addition, the TGI in the assay with SK-OV-3 ovarian is 32.9 µM; in the assay with SF-539 CNS it was 29.8 µM; in the assay with HCT-116 colon, 53 µM; in the assay on NCI/ADR-RES ovarian, 54.3 µM.
`O=C(NCCCCNCCCNC(=O)c1ccccc1)c1ccccc1`: the TGI in the assay on U251 CNS, with A549 NSCLC, in the assay on UACC-62 melanoma, in the assay with TK-10 renal, with DU-145 prostate and in the assay on NCI-H226 lung was > 100 µM each time. The total growth inhibition concentration (TGI) with SK-OV-3 ovarian, with SF-539 CNS, with HCT-116 colon and in the assay on NCI/ADR-RES ovarian was > 100 µM throughout.
For the compound `O=C(/C=C/c1ccc(-c2ccccc2)cc1)NCc1ccc(C(=O)NCCc2c[nH]c3ccccc23)cc1`, the TGI in the assay with U251 CNS was > 100 µM; in the assay with A549 NSCLC, 60.4 µM; with UACC-62 melanoma, > 100 µM; in the assay on TK-10 renal it was 86.8 µM; in the assay with DU-145 prostate, > 100 µM; with NCI-H226 lung, 60.1 µM. In addition, the TGI with SK-OV-3 ovarian is 35.2 µM; in the assay on SF-539 CNS, > 100 µM; in the assay with HCT-116 colon it was > 100 µM; with NCI/ADR-RES ovarian, > 100 µM.
Regarding `CC(C)(C)n1c(=O)n(C(=O)C(Cl)(Cl)Cl)n(C(=O)C(Cl)(Cl)Cl)c1=O`, the concentration for total growth inhibition (TGI) in the assay on U251 CNS, in the assay with A549 NSCLC, in the assay with UACC-62 melanoma, in the assay on TK-10 renal, in the assay on DU-145 prostate and in the assay with NCI-H226 lung was > 100 µM throughout. The TGI in the assay on SK-OV-3 ovarian, with SF-539 CNS, in the assay with HCT-116 colon and in the assay with NCI/ADR-RES ovarian was > 100 µM throughout.
For `CC(NC1=NCCO1)c1cccc([N+](=O)[O-])c1` (stereo not given), the TGI with U251 CNS, in the assay with A549 NSCLC, in the assay with UACC-62 melanoma, in the assay on TK-10 renal, in the assay on DU-145 prostate and in the assay on NCI-H226 lung was > 100 µM each time. Besides, the TGI in the assay with SK-OV-3 ovarian, in the assay on SF-539 CNS, in the assay on HCT-116 colon and with NCI/ADR-RES ovarian was > 100 µM each time.
Turning to `CCCC(CC)c1c(O)c(O)c(C(CC)CCC)c(C(CC)CCC)c1C(CC)CCC` (stereo not given), the TGI in the assay with U251 CNS, in the assay with A549 NSCLC, in the assay with UACC-62 melanoma, in the assay on TK-10 renal, with DU-145 prostate and in the assay on NCI-H226 lung was > 10 µM each time. Besides, the TGI in the assay on SK-OV-3 ovarian, in the assay with SF-539 CNS, in the assay on HCT-116 colon and in the assay with NCI/ADR-RES ovarian was > 10 µM in each case.
Turning to `O=C(NNc1cn[nH]c(=O)c1Cl)/C(=C/c1ccc2c(c1)OCO2)NC(=O)c1ccccc1`, the TGI in the assay with U251 CNS, with A549 NSCLC, with UACC-62 melanoma, with TK-10 renal, in the assay on DU-145 prostate and with NCI-H226 lung was > 100 µM throughout. In addition, the total growth inhibition concentration (TGI) with SK-OV-3 ovarian, in the assay with SF-539 CNS, with HCT-116 colon and in the assay with NCI/ADR-RES ovarian was > 100 µM each time.
Take `COC(=O)c1ccc(CCc2cc(O)ccc2O)cc1`: the TGI was 33.2 µM with U251 CNS; > 61.3 µM in the assay on A549 NSCLC; 33.9 µM in the assay on UACC-62 melanoma; 45.8 µM with TK-10 renal; > 100 µM in the assay with DU-145 prostate; 38.6 µM in the assay on NCI-H226 lung. The TGI in the assay with SK-OV-3 ovarian is > 78 µM; with SF-539 CNS it was 19.6 µM; in the assay on HCT-116 colon, 24 µM; with NCI/ADR-RES ovarian it was > 90.1 µM.
`CC(C)[C@H]1NC(=O)[C@H]2N=C(O[C@@H]2C)[C@@H]2CCCN2C(=O)[C@H](Cc2ccccc2)NC(=O)[C@@H]2CSC(=N2)[C@@H](Cc2ccccc2)NC(=O)[C@@H]2CSC1=N2`: the TGI in the assay on U251 CNS, with A549 NSCLC, with UACC-62 melanoma, in the assay on TK-10 renal, with DU-145 prostate and with NCI-H226 lung was > 100 µM throughout. The TGI in the assay with SK-OV-3 ovarian, with SF-539 CNS, in the assay on HCT-116 colon and with NCI/ADR-RES ovarian was > 100 µM in each case.

The values above are taken from PubChem BioAssay (NCI).
